Laboratory results taken from PMC8401404 (Molecules, 2021).

What was measured:
[1] = tested on: poly dA-poly dT (DNA, polymer) A/T; assay: UV thermal melting at 260 nm; details: Na+ (sodium cacodylate, I = 0.05 M), pH 7.0, r = [compound]/[polynucleotide phosphate] = 0.3, error ±0.5, per base
[2] = tested on: poly(dAdT)2 (DNA, polymer) AT; assay: UV thermal melting at 260 nm; details: Na+ (sodium cacodylate, I = 0.05 M), pH 7.0, r = [compound]/[polynucleotide phosphate] = 0.3, error ±0.5, per base
[3] = MTS cytotoxicity assay, 2D cell culture, normal lung fibroblasts; details: human, MRC-5 normal lung fibroblasts, 2D culture
Protocol: (§1) MTS assay gives us information about the number of living cells, in this case, metabolically active cells, whereas the BrdU proliferation assay gives a measure of the cell population in active division phase. Both assays were performed in 2D and 3D assay formats. For the 2D cell assay format, we used classic two-dimensional in vitro assays and as a 3D assay we used a hanging drop proliferation cell assay as previously described. We explored the activity of compounds on three human lung cancer cell lines, A549, HCC827 and NCI-H358. The compound activity was also tested on human lung fibroblast cell line MRC-5. A two-dimensional in vitro viability assay was performed on the MRC-5 cell line to see if tested compounds are cytotoxic on normal cell lines in low concentrations. […] 7.1.
(§2) Test compounds were synthesized by a research group at the Department of Organic Chemistry, Faculty of Chemical Engineering and Technology, University of Zagreb. […] Compounds were diluted 1:3. We transferred 500 nL (for 2D cell culture) or 400 nL (for 3D cell culture) of the compound from a mother plate to test plate by using Mosquito (TTP labtech). DMSO percentage in test concentrations was 0.5–1.0%. Starting concentration of the test compounds and standard compound doxorubicin was 50 µM (2D cell culture) or 100 µM (3D cell culture).
(§3) Cells were grown in 96-well cell star polystyrene plates. We seeded 10,000 cells/well in wells 4 h prior to the treatment with different compounds concentrations and incubated for 72 h. A cell viability assay was performed according to the manufacturer’s instructions, using CellTiter 96 aqueous solution, MTS kit (Promega, Madison, WI, USA). After 0.5–2 h of cell incubation with MTS in 2D cell culture, the plates were read using PE EnVision absorbance at 490 nm.
(§4) Calculation of IC50 data, curves and QC analysis was performed by using Excel tools and GraphPadPrism software (La Jolla, CA, USA), v. […] QC criteria parameters (Z’, S:B, R2, HillSlope) were checked for every IC50 curve.

ctDNA = assay: Thermal melting experiments; format: binding, calf; details: r = [compound]/[polynucleotide] = 0.3, pH 7.0, sodium cacodylate buffer I = 0.05 mol dm^−3; error ±0.5 °C
Excerpt: (§5) The thermal stability of helices is usually affected by the non-covalent binding of small molecules to double-stranded nucleic acids. We determined the ΔTm value (the difference between the Tm value of free polynucleotide and a complex with a small molecule) for complexes of selected compounds with ctDNA and an alternating polynucleotide, poly(dAdT)2. […] Because of this, we determined ΔTm value with non-alternating AT-DNA, poly dA-poly dT as well.

HCC827 [4] = assay: Cytotoxicity (viability) assay, 3D hanging drop cell culture; details: Homo sapiens, HCC827, 72 h, read-out: Cytotoxicity Assay IC50 ± SD; HCC827 3D
Protocol: as §1, §2
(§6) Cells were grown in 96-well Perfecta 3D hanging drop plates 5000 cell/well for 4 days until spheres were formed (and checked under the microscope). After sphere formation cells were treated with compounds followed by 72 h incubation. Cell viability assay was performed according to the manufacturer’s instructions, using CellTiter GLO 3D for 3D cell culture (Promega); cell incubation was 5 min on the shaker followed by 25 min incubation in the dark. Plates were read using PE EnVision luminescence.
as §4

A549 [5] = assay: as above; details: Homo sapiens, A549, 72 h, read-out: Cytotoxicity Assay IC50 ± SD; A549 3D
Protocol: as §1, §2, §6, §4

NCI-H358 [6] = assay: as above; details: Homo sapiens, NCI-H358, 72 h, read-out: Cytotoxicity Assay IC50 ± SD; NCI-H358 3D
Protocol: as §1, §2, §6, §4

HCC827 [7] = assay: BrdU proliferation assay, 3D hanging drop cell culture; format: cell-based, human; details: Homo sapiens, HCC827, 3D, BrdU, n = 2, read-out: Proliferation Assay IC50 ± SD
Protocol: as §1, §2, §6
(§7) Proliferation assay was performed using Cell Proliferation ELISA, BrdU (Sigma, St. Louis, MO, USA). Briefly, 48 h hours after compound addition, 10 µM of BrdU was added to each well and incubated for the following 24 h. After incubation, a single cell suspension was made for 3D cell culture in the new 96-well plate. Plates were centrifuged and supernatants were removed from each plate (for 2D and 3D cell culture) followed by 60 min incubation at 60 °C. The rest of the proliferation assay was performed according to the manufacturer’s instructions.
as §4

A549 [8] = assay: as above; format: cell-based, human; details: Homo sapiens, A549, 3D, BrdU, n = 2, read-out: Proliferation Assay IC50 ± SD
Protocol: as §1, §2, §6, §7, §4

NCI-H358 [9] = assay: as above; format: cell-based, human; details: Homo sapiens, NCI-H358, 3D, n = 2, read-out: Proliferation Assay IC50 ± SD
Protocol: as §1, §2, §6, §7, §4

S. aureus ATCC 29213 = assay: Broth microdilution testing (CLSI); format: cell-based, Staphylococcus aureus; details: Staphylococcus aureus, ATCC29213, broth microdilution, 16–24h at 37 °C; read-out: MIC S. aureus ATCC 29213
Protocol: (§8) Broth microdilution testing was performed according to CLSI (Clinical Laboratory Standards Institute) guidelines. MIC (minimal inhibitory concentration) value was defined as the last tested concentration of compound at which there is no visible growth of bacteria. […] Clinical and Laboratory Standards Institute (CLSI) guidelines.

HCC827 [10] = assay: MTS cytotoxicity assay, 2D cell culture; details: Homo sapiens, HCC827, 72 h, read-out: Cytotoxicity Assay IC50 ± SD; HCC827 2D
Protocol: as §1, §2, §3, §4

A549 [11] = assay: MTS cytotoxicity assay, 2D cell culture; details: Homo sapiens, A549, 72 h, read-out: Cytotoxicity Assay IC50 ± SD; A549 2D, 72 h, MTS; n = 2
Protocol: as §1, §2, §3, §4

NCI-H358 [12] = assay: MTS cytotoxicity assay, 2D cell culture; details: Homo sapiens, NCI-H358, 72 h, read-out: Cytotoxicity Assay IC50 ± SD; NCI-H358 2D
Protocol: as §1, §2, §3, §4

[13] = Solubility in water (stock solutions)
HCC827 [14] = assay: BrdU proliferation assay, 2D cell culture; format: cell-based, human; details: Homo sapiens, HCC827, 2D, BrdU, n = 2, read-out: Proliferation Assay IC50 ± SD
Protocol: as §1, §2, §3, §7, §4

A549 [15] = assay: BrdU proliferation assay, 2D cell culture; format: cell-based, human; details: Homo sapiens, A549, 2D, BrdU, n = 2, read-out: Proliferation Assay IC50 ± SD
Protocol: as §1, §2, §3, §7, §4

NCI-H358 [16] = assay: BrdU proliferation assay, 2D cell culture; format: cell-based, human; details: Homo sapiens, NCI-H358, 2D, n = 2, read-out: Proliferation Assay IC50 ± SD
Protocol: as §1, §2, §3, §7, §4

S. cerevisiae ATCC 7752 = assay: Broth microdilution testing (CLSI); format: cell-based, Saccharomyces cerevisiae; details: Saccharomyces cerevisiae, ATCC7752; broth microdilution, 16–24h at 37 °C; read-out: MIC S. cerevisiae ATCC 7752
Protocol: as §8

E. coli ATCC 25922 = assay: Broth microdilution testing (CLSI); format: cell-based, Escherichia coli; details: Escherichia coli, ATCC25922; broth microdilution, 16–24h at 37 °C; read-out: MIC E. coli ATCC 25922
Protocol: as §8

poly(dAdT)2 = assay: Thermal melting experiments; format: binding; details: r = 0.3, pH 7.0, sodium cacodylate buffer I = 0.05 mol dm^−3; error ±0.5 °C
Excerpt: as §5

poly dA-poly dT = assay: Thermal melting experiments; format: binding; details: r = 0.3, pH 7.0, sodium cacodylate buffer I = 0.05 mol dm^−3; error ±0.5 °C
Excerpt: as §5

Row | Compound | melting point [°C] | IC50 (HCC827 [7]) [µM] | IC50 (A549 [8]) [µM] | IC50 (NCI-H358 [9]) [µM] | MIC (S. aureus ATCC 29213) [µM] | IC50 (HCC827 [14]) [µM] | IC50 (A549 [15]) [µM] | IC50 (NCI-H358 [16]) [µM] | MIC (S. cerevisiae ATCC 7752) [µM] | MIC (E. coli ATCC 25922) [µM] | IC50 at 72 h [3] [µM] | IC50 (HCC827 [4]) [µM] | IC50 (A549 [5]) [µM] | IC50 (NCI-H358 [6]) [µM] | IC50 (HCC827 [10]) [µM] | IC50 (A549 [11]) [µM] | IC50 (NCI-H358 [12]) [µM] | other results
1 | CC(C)NC(=N)c1ccc2nc(-c3ccc(-c4ccc([N+](=O)[O-])cc4)o3)sc2c1 | – | – | – | – | – | – | – | – | – | – | – | – | – | – | – | – | – | ΔTm [1]: 5.5 °C; ΔTm [2]: 4.8 °C
2 | Cl.O=[N+]([O-])c1ccc(-c2ccc(-c3nc4ccc(C5=NCCN5)cc4s3)o2)cc1 [Compound 6, 6-(4,5-Dihydro-1H-imidazol-2-yl)-2-[5-(4-nitrophenyl)furan-2-yl]benzothiazole hydrochloride] | 287 to 292 | 7.63 ± 5 | 5.52 ± 0.1 | 2.36 ± 1.17 | > 100 | 16.7 ± 9.39 | 2.27 ± 0.13 | 1.1 ± 0.001 | 1.6 | > 100 | 3.11 ± 0.26 | 7.02 ± 3.25 | 4.01 ± 0.95 | 1.73 ± 0.01 | 5.13 ± 0.97 | 2.12 ± 0.21 | 0.85 ± 0.05 | ΔTm ctDNA (ctDNA): 3.2 °C; solubility [13]: 1720 µM; ΔTm [1]: 5.6 °C; ΔTm poly (dAdT)2 (poly(dAdT)2): 3.6 °C; ΔTm Poly dA-poly dT (poly dA-poly dT): 5.6 °C; ΔTm [2]: 3.6 °C
3 | N#Cc1ccc2nc(-c3ccc(-c4ccc([N+](=O)[O-])cc4)o3)sc2c1 [Compound 4, 6-Cyano-2-[5-(4-nitrophenyl)furan-2-yl]benzothiazole] | 276 to 279 | > 100 | > 100 | > 100 | > 100 | > 50 | > 50 | > 50 | > 100 | > 100 | > 50 | > 100 | > 100 | > 100 | > 50 | > 50 | > 50 | –
4 | N#Cc1ccc2nc(-c3ccc(-c4ccc(Cl)cc4)o3)sc2c1 [Compound 7, 2-[5-(4-Chlorophenyl)furan-2-yl]-6-cyanobenzothiazole] | 235 to 237 | > 100 | > 100 | > 100 | > 100 | > 50 | > 50 | > 50 | > 100 | > 100 | > 50 | > 100 | > 100 | > 100 | > 50 | > 50 | > 50 | –
5 | N#Cc1ccc2[nH]c(-c3ccc(-c4ccc(Cl)cc4)o3)nc2c1 [Compound 13, 2-[5-(4-Chlorophenyl)furan-2-yl]-5(6)-cyanobenzimidazole] | 242 to 246 | > 100 | > 100 | > 100 | > 100 | > 50 | 22.7 ± 0.54 | 15.7 ± 0.86 | > 100 | > 100 | > 50 | > 100 | > 100 | > 100 | > 50 | > 50 | > 50 | –

The next lines start with results.

Row | melting point [°C] | IC50 (HCC827 [7]) [µM] | IC50 (A549 [8]) [µM] | IC50 (NCI-H358 [9]) [µM] | MIC (S. aureus ATCC 29213) [µM] | IC50 (HCC827 [14]) [µM] | IC50 (A549 [15]) [µM] | IC50 (NCI-H358 [16]) [µM] | MIC (S. cerevisiae ATCC 7752) [µM] | MIC (E. coli ATCC 25922) [µM] | Compound | IC50 at 72 h [3] [µM] | IC50 (HCC827 [4]) [µM] | IC50 (A549 [5]) [µM] | IC50 (NCI-H358 [6]) [µM] | IC50 (HCC827 [10]) [µM] | IC50 (A549 [11]) [µM] | IC50 (NCI-H358 [12]) [µM] | other results
6 | 273 to 274 | > 100 | > 100 | > 100 | > 100 | > 50 | > 50 | > 50 | > 100 | > 100 | N#C/C(=C\c1ccc(-c2ccc([N+](=O)[O-])cc2)o1)c1nc2ccccc2[nH]1 [Compound 17, (E)-2-(Benzimidazol-2-yl)-3-[5-(4-nitrophenyl)furan-2-yl]acrylonitrile] | > 50 | > 100 | > 100 | > 100 | > 50 | > 50 | > 50 | –
7 | 240 to 242 | > 100 | > 100 | > 100 | > 100 | > 50 | > 50 | > 50 | > 100 | > 100 | N#C/C(=C\c1ccc(-c2ccc([N+](=O)[O-])cc2)o1)c1nc2ccccc2s1 [Compound 19, (E)-2-(Benzothiazol-2-yl)-3-[5-(4-nitrophenyl)furan-2-yl]acrylonitrile] | > 50 | > 100 | > 100 | > 100 | > 50 | > 50 | > 50 | –
8 | 292 to 294 | 0.16 ± 0.11 | > 100 | > 100 | > 100 | > 50 | 43.9 ± 54.3 | 14.4 ± 6.46 | > 100 | > 100 | N#C/C(=C\c1ccc(-c2ccc(Cl)cc2)o1)c1nc2ccccc2[nH]1 [Compound 20, (E)-2-(Benzimidazol-2-yl)-3-[5-(4-chlorophenyl)furan-2-yl]acrylonitrile] | > 50 | 9.48 ± 1.15 | > 100 | > 100 | 43.5 ± 8.17 | > 50 | 31.1 ± 4.42 | –
